Holding throughout (assay): growth of human tumour cells (NCI), 48 h
Assay [1] relates to DMS 114 small cell lung.
Assay [2] deals with SNB-78 CNS.
Assay [3] concerns ACHN renal.
Assay [4] has as its system UO-31 renal.
Assay [5] deals with HT29 colon.
For assay [6], the system named is HOP-62 NSCLC.
For assay [7], the system named is OVCAR-8 ovarian.
Assay [8] concerns RXF 393 renal.
Assay [9] concerns HCT-15 colon.
In assay [10] the test system is HOP-18 NSCLC.
In assay [11] the test system is T-47D breast.

Where “and” joins values, the source holds several entries; their conditions need not be identical. Equal values may be shown once.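 Compound exposure: 48 hours, 5 concentrations, 96-well plates. The concentration for 50% growth inhibition is given as GI50. TGI is the concentration that stops growth completely.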

On to `COc1ccc(/C=C(\C2=NC(=O)CS2)c2nc3ccccc3[nH]2)cc1`, for which the TGI in assay [1], in assay [2], in assay [3], in [4], in assay [5] and in [6] was > 100 µM each time. Also, the TGI in assay [7] was > 100 µM; in assay [8], 6.81 µM; in assay [9], > 100 µM.
For `COc1ccc(OC)c(-c2cc(=O)c3cc4c(cc3[nH]2)OCO4)c1`, the TGI in assay [1] was 13.9 µM; in assay [10] it was > 100 µM; in assay [2], > 100 µM; in [3], > 80.2 µM; in [4], > 100 µM; in assay [5], > 100 µM. The TGI in assay [6] was 67.7 µM; in assay [7], > 68.5 µM; in [8] it was 16.5 µM; in [9] it was > 55.5 µM.
Consider `O=P(Nc1cccc(Cl)c1)(Oc1ccccc1)N(CCCl)CCCl` (centres undefined), for which the TGI is 26.1 µM in [1]; 47.2 µM in [10]; 43.8 µM in assay [2]; 47.3 µM in assay [3]; > 100 µM in assay [4]; 28.4 µM in [5]. Also, the figures for the TGI in [6], in assay [7] and in [9] were 31.1 µM, 37.9 µM and 28.7 µM, respectively.
For the compound `NC(CS)C(=O)NCCNc1ccc(NCCNC(=O)C(N)CS)c2c1C(=O)c1c(O)ccc(O)c1C2=O` (centres undefined), the GI50 in assay [10] is 0.0307 µM; in [4], 0.0598 µM; in [5], 0.0454 µM; in assay [7] it was 0.0108 µM; in [8] it was 0.103 µM; in assay [9], 0.0384 µM. Moreover, the TGI in assay [10] was 3.9 µM and 0.484 µM; in assay [3] it was 0.123 µM and 0.104 µM; in [4] it was 0.477 µM and 0.316 µM; in assay [5], 1.08 µM and 0.689 µM; in [6], 0.03 µM and 0.0483 µM; in assay [7] it was 0.574 µM and 0.174 µM. The TGI is 0.554 µM and 0.455 µM in assay [8]; 1.45 µM in assay [11]; 0.864 µM and 0.584 µM in [9].
As for `C[C@]12CCC(=O)C=C1CC[C@@H]1C2CC[C@@]2(C)C1CC[C@@H]2OC(=O)C12OC1CCC2=O` (some centres undefined), the TGI was 34.3 µM in assay [1]; 31.7 µM in assay [10]; 33.9 µM in assay [2]; 29.3 µM in assay [3]; 30.3 µM in assay [4]; 33.4 µM in assay [5]. Further, the TGI in assay [6] is 70 µM; in [7], 38.6 µM; in [8], 16.8 µM; in assay [9] it was 30.7 µM.
`COCC1N=C(c2cc(OC)c(OC)c(OC)c2-c2cc3c(cc2[C@@H](C)O)OCO3)O[C@H]1c1ccccc1` (some centres undefined): the TGI is > 100 µM in assay [10]; > 87.4 µM in assay [2]; > 100 µM in [4]; > 100 µM in [5]; > 100 µM in assay [6]; > 100 µM in assay [7]. The TGI is > 91.6 µM in assay [8] and > 100 µM in assay [9].
On to `O=C1C(=Cc2ccc([N+](=O)[O-])o2)C(=O)N(CCc2ccccc2)S(=O)(=O)N1CCc1ccccc1`, for which the TGI was > 100 µM in assay [10]; 94.9 µM in assay [2]; 31.2 µM in assay [3]; > 100 µM in assay [4]; > 100 µM in assay [5]; 79.2 µM in assay [7]. Besides, the TGI in [8] is 34.1 µM; in assay [9], 30.2 µM.
Turning to `O=C(CSc1nnc(-c2ccc(N=Cc3ccc(Cl)cc3)cc2)o1)Nc1cccc([N+](=O)[O-])c1`, the TGI in assay [1], in [10], in assay [2], in [3], in [4] and in assay [5] was > 100 µM throughout. Also, the TGI in [6], in assay [7], in [8] and in assay [9] was > 100 µM throughout.
On to `COC(=O)CC1NC(=O)C1C(C)(OC)OC` (centres undefined), for which the TGI in assay [1], in assay [3], in assay [4], in [5], in [6] and in assay [7] was > 100 µM throughout. Moreover, the TGI in assay [8] and in [9] was > 100 µM in each case.
`Nc1ccn(CCCC(c2ccccc2)P(=O)(O)O)c(=O)n1` (centres undefined): the TGI in [1], in assay [10], in [2], in [3], in assay [4] and in assay [5] was > 100 µM in each case. Besides, the TGI in [6], in assay [7] and in [9] was > 100 µM each time.
On to `Cc1cc(=O)[nH]c(NNC(C#N)c2ccc(N(C)C)cc2)n1` (centres undefined), for which the TGI in assay [1], in [10], in assay [2], in assay [3], in assay [4] and in assay [5] was > 100 µM in each case. In addition, the TGI in assay [6], in [7], in assay [8] and in assay [9] was > 100 µM in each case.
On to `CN(C)CCNC(=O)c1cccc2[nH]c(-c3ccc(Cl)cc3)nc12`, for which the TGI was 21.7 µM in [1]; 61.1 µM in assay [10]; 37.7 µM in assay [2]; 12.1 µM in [4]; 16.6 µM in assay [5]; 22.5 µM in assay [6]. Further, the TGI in assay [7] came out at 20.8 µM; in assay [8], 21.3 µM; in assay [9], 19.9 µM.
For the compound `O=C(c1cccnc1)N1N=C(c2ccc3c(c2)OCO3)CC1(O)c1cc(F)c(Cl)cc1Cl` (centres undefined), the TGI in assay [3] was 38.9 µM; in assay [4] it was 41.3 µM; in assay [5], 35.9 µM; in assay [6], 48.7 µM; in assay [7], 38.4 µM; in [8], 26.1 µM. In addition, the values for the TGI in [11] and in assay [9] were 43.2 µM and 42.5 µM, respectively.
As for `O=C1c2c(F)c(F)c(F)c(F)c2SC2=Nc3cccc4cccc(c34)N12`, the TGI came to 16.8 µM in [3]; 21.7 µM in [4]; 21.4 µM in assay [5]; 27.2 µM in assay [6]; 17.7 µM in [7]; 11.1 µM in assay [8]. Moreover, the TGI worked out at 4.9 µM in [11] and 14.8 µM in assay [9].
In the case of `CCc1n[nH]c(=O)n1N=C(c1ccccc1)c1ccccc1`, the TGI in assay [3], in assay [4], in assay [5], in assay [6], in [7] and in assay [8] was > 100 µM in each case. The TGI in [11] and in [9] was > 100 µM each time.
As for `CC(=O)Nc1ccc(C(=O)n2[nH]c(C)c(/C=C3\C(=O)C=Cc4ccccc43)c2=O)cc1`, the TGI in assay [1], in [10], in assay [2], in assay [3], in [4] and in assay [5] was > 100 µM in each case. Besides, the TGI in assay [6], in [7] and in [9] was > 100 µM in each case.
With `O=C1NC2OC(CO)C(O)C(O)C2O1` (centres undefined), the TGI in assay [1], in assay [10], in assay [2], in [3], in assay [4] and in assay [5] was > 100 µM throughout. Besides, the TGI in assay [6], in assay [7] and in assay [9] was > 100 µM throughout.
As for `COc1cc2nc3n(c(=O)c2cc1OC)CCCCC3`, the TGI in [3], in assay [4], in [5], in [6], in [7] and in [8] was > 100 µM in each case. In addition, the TGI in assay [11] and in assay [9] was > 100 µM throughout.
For the compound `C=C(C)[C@@H]1CCC2=C(CC[C@]3(C)[C@@H]([C@@H](CCC=C(C)C)C(=O)O)[C@H](O)C[C@@]23C)[C@@]1(C)CCC(=O)O`, the TGI in [3], in assay [4], in assay [5], in assay [6], in assay [7] and in [8] was > 100 µM each time. Further, the TGI in assay [11] and in assay [9] was > 100 µM throughout.
With `COc1ccc(C2NC3=C(CCCC3)N2)cc1`, the TGI in assay [1], in assay [2], in [3], in [4], in assay [5] and in assay [6] was > 100 µM in each case. The TGI in assay [7] and in assay [9] was > 100 µM in each case.
With `Brc1ccc(C[N+]23CN4CN(CN(C4)C2)C3)cc1`, the TGI was 51.1 µM in assay [1]; > 100 µM in assay [2]; > 100 µM in assay [3]; > 100 µM in [4]; > 100 µM in assay [6]; 99.7 µM in assay [7]. The values for the TGI in [8] and in assay [9] were 34.6 µM and 69 µM, respectively.
As to `COc1cc(CC(=O)c2cc3c(cc2-c2ccccc2)OCO3)cc(OC)c1OC`, the TGI in [1], in assay [10], in assay [2], in assay [3], in assay [4] and in [5] was > 100 µM throughout. The TGI in [6], in [7], in assay [8] and in assay [9] was > 100 µM throughout.

Source of the values: PubChem BioAssay (NCI).
